Five compounds from ChEMBL document CHEMBL1129116, “Synthesis of cephems bearing olefinic sulfoxide side chains as potential -lactamase inhibitors” (1996) can be followed below.

For orientation: MIC means the least concentration at which growth counts as inhibited. Low values mean inhibition by little substance, high ones a need for much substance.

In brackets after ≈: the same amount, converted by molar mass.

Common to all, as to assay type: functional
One test relates to Escherichia coli. As to the kind of experiment: Antibacterial activity of compound was measured against Escherichia coli A15119 organism.
The test system of another test is Klebsiella pneumoniae. As to the kind of experiment: Antibacterial activity of compound was measured against Klebsiella pneumoniae A9432 organism.
Test [1] relates to Staphylococcus aureus. As to the kind of experiment: Antibacterial activity of compound was measured against Staphylococcus aureus A9537 organism.
The test system of test [2] is Staphylococcus aureus. As to the kind of experiment: Antibacterial activity of compound was measured against Staphylococcus aureus (MR) A20699 organism.
Test [3] deals with Staphylococcus aureus. The test is described as follows: Antibacterial activity of compound was measured against Staphylococcus aureus (MR) CEF1198 organism.

Take `O=C(Cc1cccs1)N[C@@H]1C(=O)N2C(C(=O)O)=C(/C=C/[S+]([O-])c3ccc([N+](=O)[O-])cc3)CS[C@H]12` (some centres undefined): the MIC in the test with Escherichia coli worked out at 64 µg/mL (≈ 123 µM); in the test with Klebsiella pneumoniae it was 64 µg/mL (≈ 123 µM); in the test on Staphylococcus aureus [1], 0.5 µg/mL (≈ 0.962 µM); with Staphylococcus aureus [2], 64 µg/mL (≈ 123 µM).
On to `Cc1ccc([S+]([O-])/C=C/C2=C(C(=O)O)N3C(=O)[C@@H](NC(=O)Cc4cccs4)[C@H]3SC2)cc1` (some centres undefined), for which the MIC in the test with Escherichia coli is 4 µg/mL (≈ 8.19 µM); in the test on Klebsiella pneumoniae, 2 µg/mL (≈ 4.09 µM); with Staphylococcus aureus [1], 0.25 µg/mL (≈ 0.512 µM); against Staphylococcus aureus [3] it was 8 µg/mL (≈ 16.4 µM); in the test on Staphylococcus aureus [2] it was 16 µg/mL (≈ 32.7 µM).
The like results for `C[S+]([O-])/C=C/C1=C(C(=O)O)N2C(=O)[C@@H](NC(=O)Cc3cccs3)[C@H]2SC1` (some centres undefined) were, in that order, 1 µg/mL (≈ 2.42 µM), 0.5 µg/mL (≈ 1.21 µM), 0.03 µg/mL (≈ 0.0727 µM), 4 µg/mL (≈ 9.7 µM) and 16 µg/mL (≈ 38.8 µM).
As for `COc1cccc(OC)c1C(=O)N[C@@H]1C(=O)N2[C@@H]1SC(C)(C)[C@@H]2C(=O)O` [METHICILLIN], the MIC against Escherichia coli was over 128 µg/mL; against Klebsiella pneumoniae, over 128 µg/mL; against Staphylococcus aureus [1], 0.5 µg/mL (≈ 1.31 µM); against Staphylococcus aureus [3] it was 32 µg/mL (≈ 84.1 µM); against Staphylococcus aureus [2], 32 µg/mL (≈ 84.1 µM).
As for `CS(=O)(=O)/C=C/C1=C(C(=O)O)N2C(=O)[C@@H](NC(=O)Cc3cccs3)[C@H]2SC1`, the MIC against Escherichia coli worked out at 0.5 µg/mL (≈ 1.17 µM); in the test on Klebsiella pneumoniae it was 0.5 µg/mL (≈ 1.17 µM); against Staphylococcus aureus [1], 0.06 µg/mL (≈ 0.14 µM); against Staphylococcus aureus [3], 0.5 µg/mL (≈ 1.17 µM); in the test with Staphylococcus aureus [2] it was 4 µg/mL (≈ 9.33 µM).
